Consider 15 compounds from patent US20250066372A1, “HETEROCYCLIC COMPOUNDS, COMPOSITIONS THEREOF, AND METHODS OF TREATMENT THEREWITH” (BeiGene, Ltd., priority 2022, published 2025).

CDK4/Cyclin D1, sequence (P11802 whole entry): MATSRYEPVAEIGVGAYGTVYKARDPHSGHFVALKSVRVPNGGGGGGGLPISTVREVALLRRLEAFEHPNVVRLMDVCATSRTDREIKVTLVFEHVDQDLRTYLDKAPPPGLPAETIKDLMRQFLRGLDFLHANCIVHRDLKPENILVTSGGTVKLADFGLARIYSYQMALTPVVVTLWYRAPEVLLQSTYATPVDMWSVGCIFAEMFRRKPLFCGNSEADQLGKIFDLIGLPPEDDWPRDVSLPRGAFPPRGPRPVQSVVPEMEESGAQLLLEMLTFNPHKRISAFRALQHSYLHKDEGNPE
CDK4/Cyclin D1, sequence (P24385 whole entry partner): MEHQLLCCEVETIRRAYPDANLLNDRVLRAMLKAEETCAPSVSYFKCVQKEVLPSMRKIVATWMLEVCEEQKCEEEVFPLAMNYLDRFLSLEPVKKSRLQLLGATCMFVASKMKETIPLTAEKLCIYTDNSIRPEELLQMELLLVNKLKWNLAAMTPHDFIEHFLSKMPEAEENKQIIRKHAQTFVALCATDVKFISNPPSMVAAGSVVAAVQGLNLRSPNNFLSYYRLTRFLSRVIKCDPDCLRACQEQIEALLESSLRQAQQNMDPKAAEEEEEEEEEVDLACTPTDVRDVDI

The test concerns the target CDK4/Cyclin D1 (Homo sapiens (Human), UniProt P11802). Kind of test: CDK4/Cyclin D1 biochemical assay (TR-FRET). To be noted: 1 mM ATP, 0.15 μM Rb (Ser780)-biotin substrate.
The compound `CN(C)C(=O)c1cc2cnc(N[C@@H]3CCOC[C@H]3O)nc2n1C1CCCC1` [Example 1, 7-cyclopentyl-2-(((3S,4R)-3-hydroxytetrahydro-2H-pyran-4-yl)amino)-N,N-dimethyl-7H-pyrrolo[2,3-d]pyrimidine-6-carboxamide] gave a half-inhibitory concentration (IC50) of 68 nM. In other words, the double-digit nanomolar range. For the compound `CC(=O)c1c(C)c2cnc(N[C@@H]3CCOC[C@H]3O)nc2n(C2CCCC2)c1=O` [Example 2 in WO2020212865, reference compound], it took 8.8 nM to reach half-maximal inhibition (IC50).

Compound `Cc1ccc(-n2c(C(=O)N(C)C)cc3cnc(N[C@@H]4CCOC[C@H]4O)nc32)cc1` [Example 2, 2-(((3S,4R)-3-hydroxytetrahydro-2H-pyran-4-yl)amino)-N,N-dimethyl-7-(p-tolyl)-7H-pyrrolo[2,3-d]pyrimidine-6-carboxamide] gave a half-inhibitory concentration (IC50) of 360 nM. Against the preceding compound, the IC50 is about 41-fold higher.

`CN(C)Cc1ccc(-n2c(C(=O)N(C)C)cc3cnc(N[C@@H]4CCOC[C@H]4O)nc32)cc1` [Example 3, 7-(4-((dimethylamino)methyl)phenyl)-2-(((3S,4R)-3-hydroxytetrahydro-2H-pyran-4-yl)amino)-N,N-dimethyl-7H-pyrrolo[2,3-d]pyrimidine-6-carboxamide] displayed a concentration for half-maximal inhibition (IC50) of 72 nM.

The compound `CN(C)Cc1ccc(-n2c(C(=O)N(C)C)cc3cnc(N[C@@H]4CCOC[C@H]4O)nc32)cc1C1CC1` [Example 4, 7-(3-cyclopropyl-4-((dimethylamino)methyl)phenyl)-2-(((3S,4R)-3-hydroxytetrahydro-2H-pyran-4-yl)amino)-N,N-dimethyl-7H-pyrrolo[2,3-d]pyrimidine-6-carboxamide] showed a concentration for half-maximal inhibition (IC50) of 9.7 nM. The same measure for `CN(C)Cc1ccc(-n2c(C(=O)N(C)C)cc3cnc(N[C@@H]4CCOC[C@H]4O)nc32)cc1F` [Example 5, 7-(4-((dimethylamino)methyl)-3-fluorophenyl)-2-(((3S,4R)-3-hydroxytetrahydro-2H-pyran-4-yl)amino)-N,N-dimethyl-7H-pyrrolo[2,3-d]pyrimidine-6-carboxamide]: 51 nM. `CN(C)Cc1ccc(-n2c(C(=O)N(C)C)cc3cnc(N[C@@H]4CCOC[C@H]4O)nc32)cc1Cl` [Example 6, 7-(3-chloro-4-((dimethylamino)methyl)phenyl)-2-(((3S,4R)-3-hydroxytetrahydro-2H-pyran-4-yl)amino)-N,N-dimethyl-7H-pyrrolo[2,3-d]pyrimidine-6-carboxamide] gave an IC50 of 22 nM.

`CN(C)Cc1ccc(-n2c(C(=O)N(C)C)cc3cnc(N[C@@H]4CCOC[C@H]4O)nc32)cc1C(F)(F)F` [Example 7, 7-(4-((dimethylamino)methyl)-3-(trifluoromethyl)phenyl)-2-(((3S,4R)-3-hydroxytetrahydro-2H-pyran-4-yl)amino)-N,N-dimethyl-7H-pyrrolo[2,3-d]pyrimidine-6-carboxamide] showed a concentration for half-maximal inhibition (IC50) of 5.9 nM. Compared with the last compound, the IC50 is about 3.7-fold lower. In turn, `CN1CCc2cc(-n3c(C(=O)N(C)C)cc4cnc(N[C@@H]5CCOC[C@H]5O)nc43)ccc2C1` [Example 8, 2-(((3S,4R)-3-hydroxytetrahydro-2H-pyran-4-yl)amino)-N,N-dimethyl-7-(2-methyl-1,2,3,4-tetrahydroisoquinolin-6-yl)-7H-pyrrolo[2,3-d]pyrimidine-6-carboxamide] returned a half-inhibitory concentration (IC50) of 143 nM. The same measure for `CN(C)C(=O)c1cc2cnc(N[C@@H]3CCOC[C@H]3O)nc2n1-c1ccc2c(c1)CCCC2N(C)C` (stereo partly drawn) [Example 9, 7-(5-(dimethylamino)-5,6,7,8-tetrahydronaphthalen-2-yl)-2-(((3S,4R)-3-hydroxytetrahydro-2H-pyran-4-yl)amino)-N,N-dimethyl-7H-pyrrolo[2,3-d]pyrimidine-6-carboxamide]: 12 nM. The same measure for `CN(C)C(=O)c1cc2cnc(N[C@@H]3CCOC[C@H]3O)nc2n1-c1ccc2c(c1)C1(CCC2N(C)C)CC1` (stereo partly drawn) [Example 10, 7-(4′-(dimethylamino)-3′,4′-dihydro-2′H-spiro[cyclopropane-1,1′-naphthalen]-7′-yl)-2-(((3S,4R)-3-hydroxytetrahydro-2H-pyran-4-yl)amino)-N,N-dimethyl-7H-pyrrolo[2,3-d]pyrimidine-6-carboxamide]: 13 nM; for `CN(C)C(=O)c1cc2cnc(N[C@@H]3CCOC[C@H]3O)nc2n1-c1ccc2c(c1)C(F)(F)CCC2N(C)C` (stereo partly drawn) [Example 11, 7-(5-(dimethylamino)-8,8-difluoro-5,6,7,8-tetrahydronaphthalen-2-yl)-2-(((3S,4R)-3-hydroxytetrahydro-2H-pyran-4-yl)amino)-N,N-dimethyl-7H-pyrrolo[2,3-d]pyrimidine-6-carboxamide]: 2.1 nM; for `CN(C)C(=O)c1cc2cnc(N[C@@H]3CCOC[C@H]3O)nc2n1-c1ccc2c(c1)CCC2N(C)C` (stereo partly drawn) [Example 12, 7-(1-(dimethylamino)-2,3-dihydro-1H-inden-5-yl)-2-(((3S,4R)-3-hydroxytetrahydro-2H-pyran-4-yl)amino)-N,N-dimethyl-7H-pyrrolo[2,3-d]pyrimidine-6-carboxamide]: 42 nM. With `CN(C)C(=O)c1cc2cnc(N[C@@H]3CCOC[C@H]3O)nc2n1-c1ccc2c(c1)C1(CC1)CC2N(C)C` (stereo partly drawn) [Example 13, 7-(3′-(dimethylamino)-2′,3′-dihydrospiro[cyclopropane-1,1′-inden]-6′-yl)-2-(((3S,4R)-3-hydroxytetrahydro-2H-pyran-4-yl)amino)-N,N-dimethyl-7H-pyrrolo[2,3-d]pyrimidine-6-carboxamide], the midpoint of inhibition, the IC50, lay at 38 nM. `CC(C)n1c(C(C)(C)O)nc2c(F)cc(-c3nc(N[C@@H]4CCOC[C@H]4O)ncc3Cl)cc21` [Example A94 in WO2019207463, reference compound] showed an IC50 of 5 nM.
